# Reference: ChEMBL document CHEMBL1201862, “PubChem BioAssay data set” (2004)
# Active and inactive are the calls of the source.
# How the values were obtained:
# [1] = target: T1, Endoribonuclease toxin MazF (Escherichia coli K-12, UniProt P0AE70); experiment: fluorescent RNA oligo signal without MazF, dose response, counter-screen for MazEF activator project, biochemical, fluorescence, single-stranded RNase substrate (AID 588502); type: functional
# T1 sequence (P0AE70 whole entry): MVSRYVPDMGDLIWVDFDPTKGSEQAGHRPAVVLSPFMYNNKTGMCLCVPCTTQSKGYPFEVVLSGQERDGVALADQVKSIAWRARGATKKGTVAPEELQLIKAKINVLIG
# [2] = target: T1, Endoribonuclease toxin MazF; experiment: MazF toxin RNase activators, dose response, biochemical, fluorescence, single-stranded RNA substrate, uHTS hits (AID 588481); type: functional
# [3] = control 3'UTR Renilla luciferase suppression, dose response, counter-screen for Shn3 inhibitor project, cell-based, Clone20-Shn3RL, cherry-picked (AID 624133); type: functional
# Streptococcus = experiment: Group A Streptococcus viability loss, dose response, counter-screen for streptokinase expression inhibitor project, luminescence, BacTiterGlo (AID 1915); type: functional, organism-based;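 further: potency for reduction of bacterial viability or growth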
# [4] = HepG2 cell cytotoxicity, dose response, cytotoxicity control for Shn3 inhibitor project, CellTiter-Glo, cherry-picked (AID 624134); type: functional, cell-based
# [5] = cytotoxicity toward NIH3T3 fibroblasts, dose response, counter-screen, cell-based, ATP luminescence, mouse fibroblasts (AID 2010); type: functional;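 further: cells exposed to compound for about 90 hours before reading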
# H9c2 = experiment: cells; type: functional, cell-based; conditions: Rattus norvegicus, H9c2, Myocardium;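 further: confirmatory concentration-response retest of ultra-high-throughput screening hits for modulation of myocardial damage; cell death induced by hydrogen peroxide oxidative stress; compound pretreatment for 60 min then peroxide exposure for 2 h; potency is for protecting the cells against peroxide damage rather than for killing them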
# [6] = test system: Streptococcus sp. 'group A'; experiment: growth inhibition of control SK(-) GAS strain, dose response, counter-screen for streptokinase expression inhibitor project, luminescence, kanamycin, BacTiterGlo, confirmation (AID 1900); type: functional, organism-based
# [7] = Shn3 3'UTR reporter inhibitors, dose response, cell-based, Clone20 osteoblasts, firefly luciferase, cherry-picked (AID 624132); type: functional;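 further: firefly luciferase luminescence from reporter carrying the Shn3 3'UTR in osteoblasts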
# HEK293 = experiment: inhibitors of LMP1-driven NF-kB reporter, dose response, cell-based, HEK293, luciferase, cherry-pick (AID 588343); type: functional; conditions: Homo sapiens
# [8] = inhibitors of intracellular T. cruzi replication, confirmation, NIH3T3 host cells, beta-gal luminescence (AID 2044); type: functional, cell-based;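 further: intracellular parasites grown in NIH/3T3 mouse fibroblasts as host cells; luminescent beta-galactosidase reporter signal from transgenic T. cruzi replicating inside host cells; inhibitors lower the luminescence signal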
# [9] = T. cruzi growth inhibition in host cells, dose response, cell-based, plate reader, dry powder, set 2 (AID 652275); type: functional
# Protein RecA = target: T2, Protein RecA (Mycobacterium tuberculosis, UniProt P9WHJ3); experiment: Fluorescence Cell-Free Homogeneous Dose Retest to Identify Inhibitors of RecA-Intein Splicing Activity. [Related pubchem assays (depositor defined):AID2097, AID2223, AID489010, AID492950]; type: functional
# T2 sequence (P9WHJ3 whole entry): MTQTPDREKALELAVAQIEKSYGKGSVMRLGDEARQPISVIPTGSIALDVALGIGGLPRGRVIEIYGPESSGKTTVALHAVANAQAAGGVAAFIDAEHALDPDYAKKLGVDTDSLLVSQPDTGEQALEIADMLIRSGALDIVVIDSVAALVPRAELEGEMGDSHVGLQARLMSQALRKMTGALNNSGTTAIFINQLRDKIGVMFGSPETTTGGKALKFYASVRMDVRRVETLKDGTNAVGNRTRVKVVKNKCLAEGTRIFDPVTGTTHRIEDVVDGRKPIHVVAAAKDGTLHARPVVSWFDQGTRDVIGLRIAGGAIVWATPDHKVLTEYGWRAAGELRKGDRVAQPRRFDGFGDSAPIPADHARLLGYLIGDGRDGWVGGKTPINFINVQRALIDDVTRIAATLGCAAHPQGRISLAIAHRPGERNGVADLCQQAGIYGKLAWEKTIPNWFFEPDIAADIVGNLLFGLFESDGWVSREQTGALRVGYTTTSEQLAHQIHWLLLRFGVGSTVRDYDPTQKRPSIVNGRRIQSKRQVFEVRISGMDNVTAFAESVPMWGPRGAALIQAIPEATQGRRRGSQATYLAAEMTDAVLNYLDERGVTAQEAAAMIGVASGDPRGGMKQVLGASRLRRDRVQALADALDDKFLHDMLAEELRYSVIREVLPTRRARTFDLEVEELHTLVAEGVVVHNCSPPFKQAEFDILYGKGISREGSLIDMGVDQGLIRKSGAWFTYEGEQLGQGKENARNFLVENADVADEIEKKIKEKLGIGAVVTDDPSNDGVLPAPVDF
# [10] = target: T3, Replicative DNA helicase DnaB (Mycobacterium tuberculosis, UniProt P9WMR3); experiment: DnaB intein splicing inhibitors, dose response, biochemical, cell-free fluorescence (AID 449749); type: functional
# T3 sequence (P9WMR3 whole entry): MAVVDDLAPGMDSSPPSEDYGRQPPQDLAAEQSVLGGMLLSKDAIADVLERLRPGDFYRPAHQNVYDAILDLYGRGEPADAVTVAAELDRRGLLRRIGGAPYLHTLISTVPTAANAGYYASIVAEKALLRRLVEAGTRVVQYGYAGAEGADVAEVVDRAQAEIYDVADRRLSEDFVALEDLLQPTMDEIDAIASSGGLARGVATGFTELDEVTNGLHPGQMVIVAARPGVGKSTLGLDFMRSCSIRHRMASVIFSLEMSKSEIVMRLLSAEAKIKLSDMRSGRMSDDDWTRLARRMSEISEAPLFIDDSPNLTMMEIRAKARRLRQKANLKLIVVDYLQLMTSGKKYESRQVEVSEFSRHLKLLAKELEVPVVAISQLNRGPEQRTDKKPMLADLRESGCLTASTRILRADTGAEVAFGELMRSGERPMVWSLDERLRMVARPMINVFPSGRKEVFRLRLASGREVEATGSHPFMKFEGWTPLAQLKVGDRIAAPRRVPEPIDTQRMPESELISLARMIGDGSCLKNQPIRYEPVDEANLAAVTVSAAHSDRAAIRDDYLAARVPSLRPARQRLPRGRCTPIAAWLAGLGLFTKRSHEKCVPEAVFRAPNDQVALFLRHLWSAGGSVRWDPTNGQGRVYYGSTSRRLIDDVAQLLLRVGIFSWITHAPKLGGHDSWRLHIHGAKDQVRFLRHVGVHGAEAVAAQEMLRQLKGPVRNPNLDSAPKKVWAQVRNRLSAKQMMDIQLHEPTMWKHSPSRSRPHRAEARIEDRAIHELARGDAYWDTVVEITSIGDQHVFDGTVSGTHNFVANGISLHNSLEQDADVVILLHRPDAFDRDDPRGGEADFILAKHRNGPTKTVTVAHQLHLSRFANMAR
# Vero = experiment: cells; type: functional; conditions: Chlorocebus sabaeus
# [11] = target: T4, Adenosylmethionine-8-amino-7-oxononanoate aminotransferase (Mycobacterium tuberculosis, UniProt P9WQ81); experiment: Mycobacterium tuberculosis BioA enzyme inhibitor Measured in Biochemical System Using Plate Reader - 2163-02_Inhibitor_Dose_CherryPick_Activity.; type: functional, Mycobacterium tuberculosis UT205
# T4 sequence (P9WQ81 whole entry): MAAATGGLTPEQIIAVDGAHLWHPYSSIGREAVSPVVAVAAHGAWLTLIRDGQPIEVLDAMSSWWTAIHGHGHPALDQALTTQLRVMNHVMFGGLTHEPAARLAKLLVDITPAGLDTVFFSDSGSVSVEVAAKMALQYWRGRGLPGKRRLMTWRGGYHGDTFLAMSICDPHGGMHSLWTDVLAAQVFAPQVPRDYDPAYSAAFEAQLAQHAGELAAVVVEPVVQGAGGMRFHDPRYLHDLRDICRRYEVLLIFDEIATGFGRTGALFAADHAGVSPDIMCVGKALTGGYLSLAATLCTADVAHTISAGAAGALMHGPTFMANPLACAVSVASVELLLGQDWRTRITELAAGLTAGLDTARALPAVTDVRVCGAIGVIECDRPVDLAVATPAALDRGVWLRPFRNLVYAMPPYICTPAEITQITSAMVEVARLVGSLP
# Cryptococcus neoformans = experiment: PubChem AID 686997; type: functional, organism-based; conditions: Cryptococcus neoformans
# [12] = inhibitors of clade B AD8 Env fusion, dose response, cell-based, cherry-pick (AID 652062); type: functional;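 further: luciferase signal from cell-cell fusion driven by HIV-1 clade B AD8 Env; potency is for inhibitors of fusion seen as a drop in luminescence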
# [13] = CEM21 lymphoblast cell cytotoxicity, dose response, cytotoxicity control for viral fusion inhibitor project, CellTiter-Glo luminescence, cherry-picked (AID 652042); type: functional, cell-based;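 further: potency for signal decrease meaning cytotoxicity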
# [14] = inhibitors of HIV Env-driven cell fusion, dose response, cherry-pick (AID 652057); type: functional, cell-based
# INS1 = experiment: beta cell apoptosis inhibitors, cytokine rescue, dose response, luminescence, retest (AID 449756); type: functional, cell-based; conditions: Rattus norvegicus;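 further: cell death triggered by IL-1 beta plus TNF-alpha plus IFN-gamma mixture; protective hits raise ATP signal compared with cytokine alone wells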
compound,measurement,setting,value
Cc1ccc(C)c(Nc2nc3c(S(=O)(=O)c4ccccc4)nnn3c3ccccc23)c1,EC50,[1],> 99 µM (inactive)
same,EC50,[2],> 99 µM (inactive)
CCCN(CCC)S(=O)(=O)c1ccc(C(=O)Nc2nnc(-c3cc(OC)cc(OC)c3)o2)cc1,AC50,[3],3.45 µM (active)
same,EC50,Streptococcus,430 nM (active)
same,AC50,[4],1.33 µM (active)
same,EC50,[5],3.92 µM (active)
same,IC50,H9c2,> 79 µM (inactive)
same,EC50,[6],120 nM (active)
same,AC50,[7],2.64 µM (active)
same,AC50,HEK293,2.51 µM (active)
same,EC50,[8],965 nM (active)
CCCN(CCC)c1[nH]cnc2ncnc1-2,AC50,HEK293,21.2 µM (active)
COc1ccccc1CN(C)C[C@H]1Oc2c(NC(=O)c3ccncc3)cccc2C(=O)N([C@@H](C)CO)C[C@@H]1C,AC50,[9],78 nM (active)
Cc1ccccc1N(Cc1cc(O)nc2ccccc12)C(=O)CCl,EC50,Protein RecA,6.26 µM (active)
same,AC50,[10],50.5 µM (active)
same,CC50,Vero,17.5 µM (active)
O=C(Nc1ccc(F)c(Cl)c1)C1CCCN(c2cnccn2)C1 (configuration not stated),AC50,[11],3.25 µM (active)
same,EC50,[5],> 60 µM (not active)
same,EC50,[8],390 nM (active)
CC(C)N1C[C@@H](CN(C)Cc2ccc(Cl)cc2)Oc2c(C(=O)Nc3ccncc3)cccc2C1=O,AC50,[9],0.79 nM (active)
COc1cccc(NC(=S)N2CCC(Cc3ccccc3)CC2)c1,AC50,Cryptococcus neoformans,36.8 µM (active)
C=CCSC1=N/C(=C\c2cc(OC)c3c(c2)OCO3)C(=O)S1,EC50,[1],64.5 µM (inactive)
same,EC50,[2],20.7 µM (inactive)
O=C(OCCOc1cccc(Cl)c1)c1cc(S(=O)(=O)N2CCCCC2)ccc1N1CCOCC1,AC50,[12],22.1 µM (active)
same,AC50,[13],52.3 µM (active)
same,EC50,[5],> 30 µM (not active)
same,AC50,[14],48.3 µM (active)
same,AC50,INS1,4.81 µM (active)
same,EC50,[8],3050 nM (active)
Clc1ccc(CSc2nnc(-c3cccnc3)o2)cc1,AC50,[11],4.13 µM (active)
Nc1nc(N)c2cc(S(=O)(=O)c3ccc4ccccc4c3)ccc2n1,EC50,[1],> 99 µM (inactive)
same,AC50,[4],2.82 µM (active)
same,EC50,[2],> 99 µM (inactive)
same,AC50,[7],3.37 µM (active)
CCCCN1C(=O)c2ccc(C(=O)Nc3cccnc3)cc2C1=O,AC50,[11],0.544 µM (active)
CN1/C(=C/C(=O)c2ccc(Cl)cc2)Sc2cc3c(cc21)OCO3,EC50,[1],62.3 µM (inactive)
same,EC50,[2],> 99 µM (inactive)
